Results as given in patent US20240228555A9, “ANTIMICROBIAL PEPTIDOMIMETICS” (Basilea Pharmaceutica International AG, Allschwil, priority 2020, published 2024).
Where a SMILES comes first, the peptide text is derived from it.

How the values were obtained:
[1] = tested on: Escherichia coli MCR-1 Af 45; details: Mueller-Hinton broth II, no visible growth after 18-20 hours at 35° C.
How it was run: (§1)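 First, bacterial colonies are suspended in saline and adjusted to 0.5 McFarland. Next, the suspension is diluted into cation-adjusted Mueller-Hinton II broth (approx. 5×10^5 CFU/mL). Finally, it is added to two-fold serially diluted peptide, with polysorbate 80 at 0.002% final.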

[2] = tested on: Klebsiella pneumoniae SSI3010; details: SSI3010
How it was run: as §1

[3] = tested on: Escherichia coli ATCC 25922; details: ATCC 25922
How it was run: as §1

[4] = tested on: human red blood cells (hRBC); type: cell-based; details: red cells of human, 1 h, 0.2 g/L
How it was run: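 Percent lysis was derived from supernatant absorbance at 540 nm relative to full lysis by 2.5% Triton X-100 (PBS defines 0%). Compounds, 200 μg/mL, were exposed for 1 h at 37° C to a 20% (v/v) suspension of washed human red cells.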

CC[C@H](C)[C@@H]1NC(=O)[C@@H](NC(=O)[C@H](Cc2ccc(O)cc2)NC(=O)[C@@H](NC(=O)[C@@H](NC(=O)[C@@H]2C[C@@H](O)CN2C(=O)[C@@H](N)C(C)C)[C@@H](C)CC)[C@@H](C)O)C(C)(C)SSC[C@@H](C(=O)N[C@@H](CO)C(=O)N[C@@H](CCCN)C(=O)N[C@@H](Cc2ccc(O)cc2)C(=O)O)NC(=O)[C@H](CCCCN)NC(=O)[C@@H](CCN)NC(=O)[C@H]([C@@H](C)O)NC(=O)[C@H](CCN)NC(=O)[C@H](CCCNC(=N)N)NC1=O [Example 92, Val-Hyp-Ile-Thr-Tyr-Pen-Ile-Arg-Dab-Thr-^DDab-Lys-Cys-Ser-Orn-Tyr] (HELM PEPTIDE1{V.[Hyp].I.T.Y.[Pen].I.R.[Dab].T.[NCC[C@@H](N[*:1])C(=O)[*:2]].K.C.S.[Orn].Y}$PEPTIDE1,PEPTIDE1,6:R3-13:R3$$$V2.0)
Escherichia coli MCR-1 Af 45 MIC [1]: 0.125 mg/L
Klebsiella pneumoniae SSI3010 MIC [2]: 0.5 mg/L
Escherichia coli ATCC 25922 MIC [3]: 0.25 mg/L
Hemolysis at 0.2 g/L [4]: <1%

CC[C@H](C)[C@H](NC(=O)[C@@H](NC(=O)[C@@H]1C[C@@H](N)CN1C(=O)[C@@H](N)C(C)C)[C@@H](C)CC)C(=O)N[C@@H](Cc1ccc(O)cc1)C(=O)N[C@@H]1C(=O)N[C@@H](CC(N)=O)C(=O)N[C@@H](CCCNC(=N)N)C(=O)N[C@@H](CCN)C(=O)N[C@@H]([C@@H](C)O)C(=O)N[C@H](CCN)C(=O)N[C@@H](CCCCN)C(=O)N[C@H](C(=O)N[C@@H](CO)C(=O)N[C@@H](CCCNC(=N)N)C(=O)N[C@@H](Cc2ccc(O)cc2)C(=O)O)CSSC1(C)C [Example 93, Val-Pro((4R)NH2)-Ile-Ile-Tyr-Pen-Asn-Arg-Dab-Thr-^DDab-Lys-Cys-Ser-Arg-Tyr] (HELM PEPTIDE1{V.[N[C@@H]1C[C@@H](C(=O)[*:2])N([*:1])C1].I.I.Y.[Pen].N.R.[Dab].T.[NCC[C@@H](N[*:1])C(=O)[*:2]].K.C.S.R.Y}$PEPTIDE1,PEPTIDE1,6:R3-13:R3$$$V2.0)
Escherichia coli MCR-1 Af 45 MIC [1]: 0.0625 mg/L
Klebsiella pneumoniae SSI3010 MIC [2]: 0.25 mg/L
Escherichia coli ATCC 25922 MIC [3]: 0.25 mg/L
Hemolysis at 0.2 g/L [4]: <1%

CC[C@H](C)[C@H](NC(=O)[C@@H]1C[C@@H](O)CN1C(=O)[C@@H](N)C(C)C)C(=O)N[C@H](C(=O)N[C@@H](Cc1ccc(O)cc1)C(=O)N[C@@H]1C(=O)N[C@@H](CC(N)=O)C(=O)N[C@@H](CCCNC(=N)N)C(=O)N[C@@H](CCN)C(=O)N[C@@H](CO)C(=O)N[C@H](CCN)C(=O)N[C@@H](CCCCN)C(=O)N[C@H](C(=O)N[C@@H](CCN)C(=O)N[C@@H](CCCN)C(=O)N[C@@H](Cc2ccc(O)cc2)C(=O)O)CSSC1(C)C)[C@@H](C)O [Example 94, Val-Hyp-Ile-Thr-Tyr-Pen-Asn-Arg-Dab-Ser-^DDab-Lys-Cys-Dab-Orn-Tyr] (HELM PEPTIDE1{V.[Hyp].I.T.Y.[Pen].N.R.[Dab].S.[NCC[C@@H](N[*:1])C(=O)[*:2]].K.C.[Dab].[Orn].Y}$PEPTIDE1,PEPTIDE1,6:R3-13:R3$$$V2.0)
Escherichia coli MCR-1 Af 45 MIC [1]: 0.0625 mg/L
Klebsiella pneumoniae SSI3010 MIC [2]: 0.25 mg/L
Escherichia coli ATCC 25922 MIC [3]: 0.0625 mg/L
Hemolysis at 0.2 g/L [4]: <1%

CC[C@H](C)[C@@H]1NC(=O)[C@@H](NC(=O)[C@H](Cc2ccc(O)cc2)NC(=O)[C@@H](NC(=O)[C@@H](NC(=O)[C@@H]2C[C@@H](O)CN2C(=O)[C@@H](N)C(C)(C)C)[C@@H](C)CC)[C@@H](C)O)C(C)(C)SSC[C@@H](C(=O)N[C@@H](CCN)C(=O)N[C@@H](CCCN)C(=O)N[C@@H](Cc2ccc(O)cc2)C(=O)O)NC(=O)[C@H](CCCCN)NC(=O)[C@@H](CCN)NC(=O)[C@H]([C@@H](C)O)NC(=O)[C@H](CCN)NC(=O)[C@H](CCCNC(=N)N)NC1=O [Example 95, tBuGly-Hyp-Ile-Thr-Tyr-Pen-Ile-Arg-Dab-Thr-^DDab-Lys-Cys-Dab-Orn-Tyr] (HELM PEPTIDE1{[CC(C)(C)[C@H](N)C(=O)[*:2]].[Hyp].I.T.Y.[Pen].I.R.[Dab].T.[NCC[C@@H](N[*:1])C(=O)[*:2]].K.C.[Dab].[Orn].Y}$PEPTIDE1,PEPTIDE1,6:R3-13:R3$$$V2.0)
Escherichia coli MCR-1 Af 45 MIC [1]: 0.125 mg/L
Klebsiella pneumoniae SSI3010 MIC [2]: 0.25 mg/L
Escherichia coli ATCC 25922 MIC [3]: 0.125 mg/L
Hemolysis at 0.2 g/L [4]: <1%

CC[C@H](C)[C@H](NC(=O)[C@@H](NC(=O)[C@@H]1C[C@@H](O)CN1C(=O)[C@@H](N)C(C)C)[C@@H](C)CC)C(=O)N[C@@H](Cc1ccc(O)cc1)C(=O)N[C@@H]1C(=O)N[C@@H](CC(N)=O)C(=O)N[C@@H](CCCNC(=N)N)C(=O)N[C@@H](CCN)C(=O)N[C@@H](CO)C(=O)N[C@H](CCN)C(=O)N[C@@H]([C@@H](C)CC)C(=O)N[C@H](C(=O)N[C@@H](CCN)C(=O)N[C@@H](CCCN)C(=O)N[C@@H](Cc2ccc(O)cc2)C(=O)O)CSSC1(C)C [Example 96, Val-Hyp-Ile-Ile-Tyr-Pen-Asn-Arg-Dab-Ser-^DDab-Ile-Cys-Dab-Orn-Tyr] (HELM PEPTIDE1{V.[Hyp].I.I.Y.[Pen].N.R.[Dab].S.[NCC[C@@H](N[*:1])C(=O)[*:2]].I.C.[Dab].[Orn].Y}$PEPTIDE1,PEPTIDE1,6:R3-13:R3$$$V2.0)
Escherichia coli MCR-1 Af 45 MIC [1]: 0.25 mg/L
Klebsiella pneumoniae SSI3010 MIC [2]: 0.5 mg/L
Escherichia coli ATCC 25922 MIC [3]: 0.25 mg/L
Hemolysis at 0.2 g/L [4]: <1%

CC[C@H](C)[C@H](NC(=O)[C@@H](NC(=O)[C@@H]1C[C@@H](O)CN1C(=O)[C@@H](N)C(C)C)[C@@H](C)CC)C(=O)N[C@@H](Cc1ccc(O)cc1)C(=O)N[C@@H]1C(=O)N[C@@H](CC(N)=O)C(=O)N[C@@H](CCCNC(=N)N)C(=O)N[C@@H](CCN)C(=O)N[C@@H]([C@@H](C)O)C(=O)N[C@H](CCN)C(=O)N[C@@H]([C@@H](C)CC)C(=O)N[C@H](C(=O)N[C@@H](CCN)C(=O)N[C@@H](CCCN)C(=O)N[C@@H](Cc2ccc(O)cc2)C(=O)O)CSSC1(C)C [Example 97, Val-Hyp-Ile-Ile-Tyr-Pen-Asn-Arg-Dab-Thr-^DDab-Ile-Cys-Dab-Orn-Tyr] (HELM PEPTIDE1{V.[Hyp].I.I.Y.[Pen].N.R.[Dab].T.[NCC[C@@H](N[*:1])C(=O)[*:2]].I.C.[Dab].[Orn].Y}$PEPTIDE1,PEPTIDE1,6:R3-13:R3$$$V2.0)
Escherichia coli MCR-1 Af 45 MIC [1]: 0.25 mg/L
Klebsiella pneumoniae SSI3010 MIC [2]: 0.5 mg/L
Escherichia coli ATCC 25922 MIC [3]: 0.25 mg/L
Hemolysis at 0.2 g/L [4]: <1%

CC[C@H](C)[C@H](NC(=O)[C@@H](NC(=O)[C@@H]1C[C@@H](O)CN1C(=O)[C@@H](N)C(C)C)[C@@H](C)CC)C(=O)N[C@@H](Cc1ccc(O)cc1)C(=O)N[C@@H]1C(=O)N[C@@H](CC(N)=O)C(=O)N[C@@H](CCCNC(=N)N)C(=O)N[C@@H](CCN)C(=O)N[C@@H]([C@@H](C)O)C(=O)N[C@H](CCN)C(=O)N[C@@H](CCCNC(N)=O)C(=O)N[C@H](C(=O)N[C@@H](CCN)C(=O)N[C@@H](CCCNC(=N)N)C(=O)N[C@@H](Cc2ccc(O)cc2)C(=O)O)CSSC1(C)C [Example 98, Val-Hyp-Ile-Ile-Tyr-Pen-Asn-Arg-Dab-Thr-^DDab-Cit-Cys-Dab-Arg-Tyr] (HELM PEPTIDE1{V.[Hyp].I.I.Y.[Pen].N.R.[Dab].T.[NCC[C@@H](N[*:1])C(=O)[*:2]].[Cit].C.[Dab].R.Y}$PEPTIDE1,PEPTIDE1,6:R3-13:R3$$$V2.0)
Escherichia coli MCR-1 Af 45 MIC [1]: 0.25 mg/L
Klebsiella pneumoniae SSI3010 MIC [2]: 0.5 mg/L
Escherichia coli ATCC 25922 MIC [3]: 0.25 mg/L
Hemolysis at 0.2 g/L [4]: <1%
